Where two headings read alike, the source gives them in different places.
Experiments:
[1] = target: DCN2 (DCUND2) protein PONY domain (Homo sapiens (Human), UniProt Q6PH85); assay: DCN2 TR-FRET assay, measurement of Kinact/KI; assay type: binding
Protocol: A TR-FRET Assay was performed to evaluate the ability of the compounds to bind DCN-2. The time resolved—Forster's resonance energy transfer (TR-FRET) assay was designed following the protocol established in (Scott et al., Nat Chem Biol. 2017 August; 13(8): 850-857). A recombinant form of the DCN2 (DCUND2) protein PONY domain was produced using an E. coli expression system at Viva Biotech China. The DCN2 protein was biotinylated (EZ sulfo-NHS-LC-biotin; Thermofisher) for labeling with 2.5 nM streptavidin terbium (Tb) cryptate in the reaction. The probe was changed to a non-covalent DCN1 inhibitor labeled with carboxyfluorescein (FAM; Zhou el al., Nat Commun. 2017; 8: 1150). Buffer conditions were modified to enhance protein stability by replacing TritonX with 0.05% Tween20 and increasing NaCl to 200 mM. […] The Kinact and KI measurements were taken to allow for continuous reads over 24 hrs. Plates were read every 5 min up to 1 hr, every 15 min up to 5 hr, and every hour up to 10 hours. Kinact and KI were calculated based on the following equations (Krippendorff B F, et al. Mechanism-based inhibition: deriving K(I) and k(inact) directly from time-dependent IC(50) values. J BiomolScreen. 2009; Mons E et al. A Comprehensive Guide for Assessing Covalent Inhibition in Enzymatic Assays Illustrated with Kinetic Simulations. […] The Kinact and KI values could be estimated from the tight curves of the IC50 values over time. [formula]

[2] = system: Cullin-3 (CUL3) neddylation; conditions: positive control, 1 μM; Zhou et al. Nature Comm. 2021; cited from earlier work
[3] = target: T1, DCN1 (DCUND1) protein PONY domain (Homo sapiens (Human), UniProt Q96GG9); assay: TR-FRET assay (binding to DCN-1, displacement of FAM-labeled probe)
T1 sequence (Q96GG9 60-248): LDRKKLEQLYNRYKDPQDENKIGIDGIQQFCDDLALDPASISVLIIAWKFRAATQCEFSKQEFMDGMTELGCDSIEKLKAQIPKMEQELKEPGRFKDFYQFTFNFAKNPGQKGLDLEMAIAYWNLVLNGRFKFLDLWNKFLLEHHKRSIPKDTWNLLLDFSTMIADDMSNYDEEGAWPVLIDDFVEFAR
Summary of the method: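 Compounds read at 1, 5 and 24 h, 0.1% final DMSO, by TR-FRET between terbium-streptavidin on biotinylated DCN1 PONY domain (E. coli) and a FAM-tagged non-covalent inhibitor probe. Two setups used, 5 nM protein with 20 nM labelled probe, or 0.31 nM protein with 100 nM labelled plus 800 nM unlabelled probe; buffer had TritonX and 200 mM NaCl. % activity relative to high (with probe) and low (without probe) controls.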

[4] = target: T1, DCN1 (DCUND1) protein PONY domain; assay: Off-rate measurement of reversible covalent molecules (jump dilution TR-FRET with Cy5 probe); conditions: binding mode from off-rate measurement
Protocol: A TR-FRET assay was performed to classify the compounds as an irreversible covalent binder, a reversible covalent binder or a reversible binder.
An assay to measure the off-rate of reversible covalent molecules was developed. A typical covalent compound is assumed to stay bound to a protein for at least the life of that protein in the cell. In reality, there is a range of how long a covalent compounds remains bound before a reverse reaction takes place. Thus, some covalent bonds can be labeled as reversible as their reverse reaction takes place in a measurable amount of time under physiological conditions. The assay capitalizes on the range of covalent binders by using a high affinity covalent binder as a probe to displace the more reversible binders in an adaptation of the jump dilution method.
In this version of the jump dilution method, the increase in covalent probe binding over time was measured through a TR-FRET reaction between the covalent probe and the biotinylated target protein.
(§1) The recombinant form of the DCN1 (DCUND1) protein PONY domain was produced using an E. coli expression system at Viva Biotech (China). The DCN1 protein was biotinylated (EZ sulfo-NHS-LC-biotin; Thermofisher) for labeling with streptavidin terbium (Tb) cryptate in the reaction. This biotinylated protein was used in two forms of the TR-FRET assay as described below.
The off-rate measurement is executed in two steps based on the jump dilution method. […] The greatest dilution allowed within the constraints of the assay was chosen. These factors allow a competitive advantage for the covalent probe to replace the test compound when that compound releases from the target protein. The actual measure is the rate of increased TR-FRET signal as the covalent probe replaces the test compound over time. […] The resulting time dependent curve of the TR-FRET signal is fit to the following equation: Y=Y0+(Plateau−Y0)*(1−exp(−K*x))
K is the rate constant (1/unit of time). The residence time is defined as the inverse of K, the rate constant. The half-life is calculated as ln(2)/K.

[5] = target: T1, DCN1 (DCUND1) protein PONY domain; assay: TR-FRET with FAM probe (compound potency, potency of the Cy5 probe); assay type: binding; conditions: potency of the covalent Cy5 probe (P-1) to DCN1; read-out: Kd (EC50) of the Cy5 probe
Excerpt: as §1
This version of the TR-FRET assay was used to measure compound potency to the target, specifically to measure the potency of the Cy5 probe (P-1). A non-covalent DCN1 inhibitor (Zhou et al., 2017) labeled with carboxyfluorescein (FAM) was used as the FRET acceptor probe. Displacement of the […], and thus decrease in the FRET signal, was indicative of compound activity on the target protein. Buffer conditions were optimized to enhance compound and protein stability (200 mM NaCl, 25 mM Tris, 0.5 mM DTT, 0.05% Tween20, 5% DMSO, 5% PEG-3350, pH 7.5) and concentrations of protein (0.31 nM) and probe (100 nM labeled, 800 nM unlabeled) were optimized for detection of potent molecules. The TR-FRET ratio between Tb-DCN1 and the FAM-labeled probe was measured in a 384-well opti-plate (Perkin Elmer) using a plate reader (BMG) at 1, 5, and 24 hrs after treatment with compound. The ratio was normalized to the high (DCN1 and FAM-probe) and low (DCN1 and no probe) controls for a readout of % activity (=100*(x−low)/(high−low)).

[6] = target: DCN1 protein (Homo sapiens (Human), UniProt Q96GG9); assay: Intact protein MS analysis with the RapidFire-TOF system (covalent adduct formation); assay type: binding; conditions: 400 nM DCN1, incubated at room temperature for 3 hours
Chain of DCN1 protein (Q96GG9 whole entry): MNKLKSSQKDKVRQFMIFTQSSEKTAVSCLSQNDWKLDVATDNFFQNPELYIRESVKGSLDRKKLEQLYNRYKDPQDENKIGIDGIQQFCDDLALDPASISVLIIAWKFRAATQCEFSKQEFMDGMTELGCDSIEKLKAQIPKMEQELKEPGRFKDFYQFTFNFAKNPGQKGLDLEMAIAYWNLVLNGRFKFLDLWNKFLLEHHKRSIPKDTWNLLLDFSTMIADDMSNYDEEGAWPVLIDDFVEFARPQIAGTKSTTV
Summary of the method: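 Tag-free His-TEV-DCN1 expressed in E. coli at 400 nM in 25 mM Tris-HCl, 200 mM NaCl, 1 mM DTT, incubated with 11 compound concentrations at room temperature for 3 h unless otherwise specified. Quenched with 0.2% formic acid; intact-protein RapidFire Q-TOF MS, deconvoluted to detect parent and compound-adduct masses.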

[7] = 24 hr after treatment with compound, read-out: TR FRET IC50 24 hr
[8] = read-out: TR FRET IC50 1 hr, 1 hr after treatment with compound
[9] = TR FRET IC50 1 hr (nM), 1 hr after treatment with compound

Chain of DCN2 (DCUND2) protein PONY domain (Q6PH85 60-248): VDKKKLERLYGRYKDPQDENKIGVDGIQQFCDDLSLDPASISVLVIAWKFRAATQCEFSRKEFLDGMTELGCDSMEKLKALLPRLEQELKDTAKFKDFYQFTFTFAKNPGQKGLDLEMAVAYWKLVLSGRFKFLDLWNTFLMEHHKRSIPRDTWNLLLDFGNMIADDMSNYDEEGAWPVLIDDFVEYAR

| Compound | Ki [1] | kinact [1] | kinact/KI [1] | IC50 [3, 7] | IC50 [3, 8] | Category [4] | IC50 [3, 9] | Emax [6] | other results |
| --- | --- | --- | --- | --- | --- | --- | --- | --- | --- |
| C=C(CN1CCOCC1)C(=O)NC[C@@H](NC(=O)[C@H](Cc1nc2ccc(C(C)C)cc2s1)NC(=O)CC)C1CCCCC1 [Compound C1, reference compound] | 0.2 to 0.5 nM | 0.005 to 0.00833 s⁻¹ | 8.33e+06 to 1.67e+07 M⁻¹ s⁻¹ | – | – | – | – | – | – |
| C=C(CN1CCOCC1)C(=O)NC[C@@H](NC(=O)[C@H](Cc1nc2ccc(C(C)C)cc2s1)NC(=O)CC)C1CCCCC1 [DI-1548] | – | – | – | – | – | – | – | – | effect on CUL3 neddylation [2]: reduce CUL3 neddylation |
| C=C(C(=O)NCc1cccc([C@@H]2c3cnn(-c4ccccc4)c3N(CC)C(=O)[C@H]2NC(=O)c2nccc(C(F)(F)F)n2)c1)[C@@H](C)N(C)C1COC1 [Compound I-300] | – | – | – | ≤ 200 nM | ≤ 200 nM | irreversible | – | – | – |
| C/C=C(\CN1CCN(C2COC2)CC1)C(=O)Nc1cccc([C@@H]2c3cnn(-c4ccccc4)c3N(CC)C(=O)[C@H]2NC(=O)c2ccn(C(F)(F)F)n2)c1 [Compound I-383, N-((4R,5S)-7-ethyl-4-(3-((E)-2-((4-(oxetan-3-yl)piperazin-1-yl)methyl)but-2-enamido)phenyl)-6-oxo-1-phenyl-4,5,6,7-tetrahydro-1H-pyrazolo[3,4-b]pyridin-5-yl)-1-(trifluoromethyl)-1H-pyrazole-3-carboxamide] | > 0.5 nM | 0.00333 to 0.005 s⁻¹ | 167000 to 3.33e+06 M⁻¹ s⁻¹ | ≤ 200 nM | – | irreversible | ≤ 200 nM | – | – |
| C=C(CN1CCOCC1)C(=O)Nc1cccc([C@@H]2c3cnn(-c4cccc(OCCCN5CCN(C(=O)CCCCCN6/C(=C/C=C/C=C/C7=[N+](C)c8ccc(S(=O)(=O)[O-])cc8C7(C)C)C(C)(C)c7cc(S(=O)(=O)O)ccc76)CC5)c4)c3N(CC)C(=O)[C@H]2NC(=O)c2cccc(C(F)(F)F)c2)c1 [Cy5 probe, 2-((1E,3E)-5-((E)-1-(6-(4-(3-(3-((4R,5S)-7-ethyl-4-(3-(2-(morpholinomethyl)acrylamido)phenyl)-6-oxo-5-(3-(trifluoromethyl)benzamido)-4,5,6,7-tetrahydro-1H-pyrazolo[3,4-b]pyridin-1-yl)phenoxy)propyl)piperazin-1-yl)-6-oxohexyl)-3,3-dimethyl-5-sulfoindolin-2-ylidene)penta-1,3-dien-1-yl)-1,3,3-trimethyl-3H-indol-1-ium-5-sulfonate] | – | – | – | – | – | – | – | – | EC50 [5]: 23.2 nM |
| C=C(C(=O)NCc1cccc([C@@H]2c3cnn(-c4ccccc4)c3N(CC)C(=O)[C@H]2NC(=O)c2csc(C(F)(F)F)n2)c1)C(C)N(C)C1COC1 (some centres unmarked) [Compound I-305] | > 0.5 nM | 0.005 to 0.00833 s⁻¹ | 167000 to 3.33e+06 M⁻¹ s⁻¹ | ≤ 200 nM | ≤ 200 nM | irreversible | – | – | – |
| CCN1C(=O)[C@H](NC(=O)c2cccc(C(F)(F)F)c2)[C@@H](c2ccccc2NC(=O)[C@H](C)Br)c2cnn(-c3ccccc3)c21 (mixture of isomers) [Compound I-72] | – | – | – | 200 to 1000 nM | – | – | 1000 to 3000 nM | 80 to 100% | – |
| CC#CC(=O)Nc1ccccc1[C@H]1c2cnn(-c3ccccc3)c2N(CC)C(=O)[C@@H]1NC(=O)c1cccc(C(F)(F)F)c1 (racemic) [Compound I-159] | – | – | – | > 3000 nM | – | – | > 3000 nM | 0 to 30% | – |
| CCN1C(=O)[C@H](NC(=O)c2cccc(C(F)(F)F)c2)[C@@H](c2cccc(NC(=O)/C=C/CN3CCOCC3)c2)c2c(C)nn(-c3ccccc3)c21 (racemic) [Compound I-47] | – | – | – | 1000 to 3000 nM | > 3000 nM | – | – | 0 to 30% | – |

From patent publication US12435087B2, “Modulators of DCN-1 and methods of use thereof” (Cellarity, Inc., priority 2023, dated 2025)
